Like-named read-outs stand apart in the source and are kept apart here.
How the values were obtained:
[1] = molecular target: T1, Tet(X4) (Escherichia coli, UniProt A0A3T0V9Y5); assay: purified enzyme inhibition assay, tigecycline absorbance at […] nm; format: biochemical
T1 construct: gene mtr-1

[2] = system: T2, E. brevis S1-3 (tet(X3)); assay: organism not typed; design: Broth microdilution MIC, bacterial growth inhibition in Mueller-Hinton broth; settings: read-out: MIC (μg/mL)
T2 construct: S1-3 (tet(X3))
Procedure: (§1) Bacterial and chemical reagents Sequential culturing of E. coli ATCC 25922 in the presence of subinhibitory levels of tigecycline, azidothymidine, or the combination. After 24 h co-incubation, any cultures that grew at higher than the MIC levels were passaged on drug free MHA plates and the MIC was then determined by broth microdilution. This serial passaging was repeated daily for 30 days. To further evaluate the synergistic activity between tigecycline and three candidates, standard checkerboard microdilution in E. coli B3-1 was performed. […] Thus, we next focused our insights on the potentiation potency of azidothymidine with tigecycline. We first evaluated the stability of the azidothymidine-tigecycline combination in the presence of salt ions and serum, which are two critical factors that affect the in vivo efficacy of drugs[20],[21]. […] However, addition of divalent cations such as Ca^2+ and Mg^2+ (10 mM) abolished its potentiation activity, but EDTA could augment the synergistic effect (Supplementary Fig. 2). Considering that divalent cations and EDTA are associated with membrane permeability, we speculated that entrance of two drugs into bacteria contribute to their activity. Next, we assessed the potency of this combination in a panel of clinical isolates from animals and environmental samples (Supplementary Tables 2 and 3). […]

[3] = system: T3, E. fergusonnii 1C4-6 (tet(X4)); assay: organism not typed; design: Broth microdilution MIC, bacterial growth inhibition in Mueller-Hinton broth; settings: read-out: MIC (μg/mL)
T3 construct: 1C4-6 (tet(X4))
Procedure: as §1

[4] = system: T4, E. coli B2 (NDM-5 + MCR-1); assay: microbe, parasite or virus in culture; design: Broth microdilution MIC, bacterial growth inhibition in Mueller-Hinton broth; settings: Escherichia coli, read-out: MIC (μg/mL)
T4 construct: B2
Procedure: (§2) Bacterial and chemical reagents Sequential culturing of E. coli ATCC 25922 in the presence of subinhibitory levels of tigecycline, azidothymidine, or the combination. After 24 h co-incubation, any cultures that grew at higher than the MIC levels were passaged on drug free MHA plates and the MIC was then determined by broth microdilution. This serial passaging was repeated daily for 30 days. To further evaluate the synergistic activity between tigecycline and three candidates, standard checkerboard microdilution in E. coli B3-1 was performed. […] Thus, we next focused our insights on the potentiation potency of azidothymidine with tigecycline. We first evaluated the stability of the azidothymidine-tigecycline combination in the presence of salt ions and serum, which are two critical factors that affect the in vivo efficacy of drugs[20],[21]. […] However, addition of divalent cations such as Ca^2+ and Mg^2+ (10 mM) abolished its potentiation activity, but EDTA could augment the synergistic effect (Supplementary Fig. 2). Considering that divalent cations and EDTA are associated with membrane permeability, we speculated that entrance of two drugs into bacteria contribute to their activity. Next, we assessed the potency of this combination in a panel of clinical isolates from animals and environmental samples (Supplementary Tables 2 and 3). […] To investigate whether this potentiation is also applicable in Tet(X)-negative bacteria, standard ATCC sensitive bacteria and other E. coli isolates with MIC values of ≤1 μg mL^−1 for tigecycline were tested.

[5] = system: T5, E. coli B3-1 (tet(X4)); assay: microbe, parasite or virus in culture; design: Broth microdilution MIC, bacterial growth inhibition in Mueller-Hinton broth; settings: Escherichia coli
T5 construct: B3-1
Procedure: as §2

[6] = system: T6, E. coli B8-1 (tet(X4)); assay: microbe, parasite or virus in culture; design: Broth microdilution MIC, bacterial growth inhibition in Mueller-Hinton broth; settings: Escherichia coli, read-out: MIC (μg/mL)
T6 construct: B8-1
Procedure: as §2

[7] = system: T7, E. coli B9-1 (tet(X4)); assay: microbe, parasite or virus in culture; design: Broth microdilution MIC, bacterial growth inhibition in Mueller-Hinton broth; settings: Escherichia coli, read-out: MIC (μg/mL)
T7 construct: B9-1
Procedure: as §2

[8] = system: T8, E. coli C3 (NDM-1); assay: microbe, parasite or virus in culture; design: Broth microdilution MIC, bacterial growth inhibition in Mueller-Hinton broth; settings: Escherichia coli, read-out: MIC (μg/mL)
T8 construct: C3
Procedure: as §2

[9] = system: T9, E. coli G6 (NDM-5); assay: microbe, parasite or virus in culture; design: Broth microdilution MIC, bacterial growth inhibition in Mueller-Hinton broth; settings: Escherichia coli, read-out: MIC (μg/mL)
T9 construct: G6
Procedure: as §2

[10] = system: T10, E. coli P10-1 (tet(X4)); assay: microbe, parasite or virus in culture; design: Broth microdilution MIC, bacterial growth inhibition in Mueller-Hinton broth; settings: Escherichia coli, read-out: MIC (μg/mL)
T10 construct: P10-1
Procedure: as §2

[11] = system: T11, E. coli P3-1 (tet(X4)); assay: microbe, parasite or virus in culture; design: Broth microdilution MIC, bacterial growth inhibition in Mueller-Hinton broth; settings: Escherichia coli, read-out: MIC (μg/mL)
T11 construct: P3-1
Procedure: as §2

[12] = system: T12, E. coli W7-1 (tet(X4)); assay: microbe, parasite or virus in culture; design: Broth microdilution MIC, bacterial growth inhibition in Mueller-Hinton broth; settings: Escherichia coli, read-out: MIC (μg/mL)
T12 construct: W7-1
Procedure: as §2

[13] = system: T13, Enterococcus faecalis VRE A4; assay: microbe, parasite or virus in culture; design: Broth microdilution MIC, bacterial growth inhibition in Mueller-Hinton broth; settings: read-out: MIC (μg/mL)
T13 construct: VRE A4
Procedure: as §2

[14] = system: T14, Escherichia coli ATCC 25922; assay: microbe, parasite or virus in culture; design: Broth microdilution MIC, bacterial growth inhibition in Mueller-Hinton broth; settings: Escherichia coli, ATCC25922, read-out: MIC (μg/mL)
T14 construct: ATCC 25922
Procedure: as §2

[15] = system: T15, Proteus penneri 2F1-3 (tet(X4)); assay: microbe, parasite or virus in culture; design: Broth microdilution MIC, bacterial growth inhibition in Mueller-Hinton broth; settings: read-out: MIC (μg/mL)
T15 construct: 2F1-3 (tet(X4))
Procedure: as §2

[16] = system: T16, S. aureus 215 (LZD^R + cfr); assay: microbe, parasite or virus in culture; design: Broth microdilution MIC, bacterial growth inhibition in Mueller-Hinton broth; settings: Staphylococcus aureus, read-out: MIC (μg/mL)
T16 construct: 215
Procedure: as §2

[17] = system: T17, Salmonella enterica ATCC 13076; assay: microbe, parasite or virus in culture; design: Broth microdilution MIC, bacterial growth inhibition in Mueller-Hinton broth; settings: ATCC13076, read-out: MIC (μg/mL)
T17 construct: ATCC 13076
Procedure: as §2

[18] = system: T18, Shigella 1F25-27 (tet(X4)); assay: microbe, parasite or virus in culture; design: Broth microdilution MIC, bacterial growth inhibition in Mueller-Hinton broth; settings: read-out: MIC (μg/mL)
T18 construct: 1F25-27 (tet(X4))
Procedure: as §2

[19] = system: T19, Staphylococcus aureus ATCC 29213; assay: microbe, parasite or virus in culture; design: Broth microdilution MIC, bacterial growth inhibition in Mueller-Hinton broth; settings: Staphylococcus aureus, ATCC29213, read-out: MIC (μg/mL)
T19 construct: ATCC 29213
Procedure: as §2

[20] = system: T20, Staphylococcus aureus MRSA 1518; assay: microbe, parasite or virus in culture; design: Broth microdilution MIC, bacterial growth inhibition in Mueller-Hinton broth; settings: Staphylococcus aureus, MRSA, read-out: MIC (μg/mL)
T20 construct: 1518
Procedure: as §2

[21] = system: T21, Staphylococcus aureus MRSA T144; assay: microbe, parasite or virus in culture; design: Broth microdilution MIC, bacterial growth inhibition in Mueller-Hinton broth; settings: Staphylococcus aureus, MRSA, read-out: MIC (μg/mL)
T21 construct: T144
Procedure: as §2

`Cc1cn([C@H]2C[C@H](N=[N+]=[N-])[C@@H](CO)O2)c(=O)[nH]c1=O` [AZI, azidothymidine] showed an IC50 [1] of 106 nM, an MIC [2] greater than 32 µg/mL and an MIC [3] of 8 µg/mL. It also gave an MIC [4] greater than 16 µg/mL, an MIC ([5]; read-out: MIC (μg/mL)) of 1 µg/mL and an MIC [6] of 0.5 µg/mL. For the same compound, the MIC [7] was 1 µg/mL, the MIC [8] was greater than 16 µg/mL and the MIC [9] was 4 µg/mL. For the same compound, the MIC [10] was 0.25 µg/mL, the MIC [11] was 0.5 µg/mL and the MIC [12] was 2 µg/mL. The MIC [13] was greater than 16 µg/mL, the MIC [14] was 2 µg/mL and the MIC [15] was 8 µg/mL. It also gave an MIC [16] greater than 16 µg/mL, an MIC [17] of 0.25 µg/mL and an MIC [18] of 2 µg/mL. The MIC [19] was greater than 16 µg/mL, the MIC [20] was greater than 16 µg/mL and the MIC [21] was greater than 16 µg/mL.
`CN(C)c1cc(NC(=O)CNC(C)(C)C)c(O)c2c1C[C@H]1C[C@H]3[C@H](N(C)C)C(O)=C(C(N)=O)C(=O)[C@@]3(O)C(O)=C1C2=O` [Tigecycline] showed an MIC ([5]; read-out: MHB (MIC, μg/mL)) of 32 µg/mL.

Source: paper PMC7125129, “Anti-HIV agent azidothymidine decreases Tet(X)-mediated bacterial resistance to tigecycline in Escherichia coli” (Communications Biology, 2020)
